Reference: patent US6939554B2, “Antimicrobial polymer” (Michigan Biotechnology Institute, priority 2002, dated 2005)

System: potential human pathogenic microorganisms
Assay: Antimicrobial activity assay, overall assessment across target microorganisms
Format: cell-based
Details: among the seven antimicrobials tested, in the polymer coatings
Procedure: The selection of target microorganisms for examining the antimicrobial activity of the coated polydimethylsiloxane substrates produced in the Control Example and Examples 1-16 was based on the potential human pathogenic microorganisms, which include gram positive bacteria, Bacillus subtilis and Staphylococcus aureus; gram negative bacteria, E. coli and Pseudomonas aeruginosa; and yeast, Candida albicans. Broth cultures were prepared for each microorganism. Bacteria, Bacillus subtilis, Staphylococcus aureus, E. coli and Pseudomonas aeruginosa were grown in 50 milliliters of sterile tryptic soy broth in a 500 milliliter baffle flask at 200 rpm. The cultures were grown at 37° C. overnight, and used for antimicrobial activity assay plates and stock culture. The yeast, Candida albicans was cultivated in 50 milliliters of sterile yeast malt broth in a 250 milliliter baffle flask at 25-28° C. for 1 day and used for the activity assay plates and stock culture.
Antimicrobial activity assay plates were then prepared. Yeast malt agar and tryptic soy agar were autoclaved for 20 minutes. The sterile molten agar was allowed to cool to 42-45° C. The prepared broth cultures of the target microorganisms were inoculated to a final concentration of 5% (v/v). […]

## [H]/N=C(\N/C(=N/[H])NCCCCCCNC(=N)NC(=N)Nc1ccc(Cl)cc1)Nc1ccc(Cl)cc1 [chlorhexidine, 1,6-bi(N^5-p-chlorophenyl-N^1-biguanido)hexane]
  Antimicrobial activity: ability to suppress the colonization and spectrum of action (in words): high activity
